The target of one test is hNaV1.1 (Homo sapiens, UniProt P35498). The test can be described thus: cell-based. Format: cell-based.
The target in another test is hNaV1.7 (Homo sapiens, UniProt Q15858). The test can be described thus: cell-based. The test is classed as cell-based.

Where a SMILES comes first, the peptide text is derived from it. Bridges are numbered along the chain shown (N, C = ends).

Chain of hNaV1.7 (Q15858 whole entry, looked up): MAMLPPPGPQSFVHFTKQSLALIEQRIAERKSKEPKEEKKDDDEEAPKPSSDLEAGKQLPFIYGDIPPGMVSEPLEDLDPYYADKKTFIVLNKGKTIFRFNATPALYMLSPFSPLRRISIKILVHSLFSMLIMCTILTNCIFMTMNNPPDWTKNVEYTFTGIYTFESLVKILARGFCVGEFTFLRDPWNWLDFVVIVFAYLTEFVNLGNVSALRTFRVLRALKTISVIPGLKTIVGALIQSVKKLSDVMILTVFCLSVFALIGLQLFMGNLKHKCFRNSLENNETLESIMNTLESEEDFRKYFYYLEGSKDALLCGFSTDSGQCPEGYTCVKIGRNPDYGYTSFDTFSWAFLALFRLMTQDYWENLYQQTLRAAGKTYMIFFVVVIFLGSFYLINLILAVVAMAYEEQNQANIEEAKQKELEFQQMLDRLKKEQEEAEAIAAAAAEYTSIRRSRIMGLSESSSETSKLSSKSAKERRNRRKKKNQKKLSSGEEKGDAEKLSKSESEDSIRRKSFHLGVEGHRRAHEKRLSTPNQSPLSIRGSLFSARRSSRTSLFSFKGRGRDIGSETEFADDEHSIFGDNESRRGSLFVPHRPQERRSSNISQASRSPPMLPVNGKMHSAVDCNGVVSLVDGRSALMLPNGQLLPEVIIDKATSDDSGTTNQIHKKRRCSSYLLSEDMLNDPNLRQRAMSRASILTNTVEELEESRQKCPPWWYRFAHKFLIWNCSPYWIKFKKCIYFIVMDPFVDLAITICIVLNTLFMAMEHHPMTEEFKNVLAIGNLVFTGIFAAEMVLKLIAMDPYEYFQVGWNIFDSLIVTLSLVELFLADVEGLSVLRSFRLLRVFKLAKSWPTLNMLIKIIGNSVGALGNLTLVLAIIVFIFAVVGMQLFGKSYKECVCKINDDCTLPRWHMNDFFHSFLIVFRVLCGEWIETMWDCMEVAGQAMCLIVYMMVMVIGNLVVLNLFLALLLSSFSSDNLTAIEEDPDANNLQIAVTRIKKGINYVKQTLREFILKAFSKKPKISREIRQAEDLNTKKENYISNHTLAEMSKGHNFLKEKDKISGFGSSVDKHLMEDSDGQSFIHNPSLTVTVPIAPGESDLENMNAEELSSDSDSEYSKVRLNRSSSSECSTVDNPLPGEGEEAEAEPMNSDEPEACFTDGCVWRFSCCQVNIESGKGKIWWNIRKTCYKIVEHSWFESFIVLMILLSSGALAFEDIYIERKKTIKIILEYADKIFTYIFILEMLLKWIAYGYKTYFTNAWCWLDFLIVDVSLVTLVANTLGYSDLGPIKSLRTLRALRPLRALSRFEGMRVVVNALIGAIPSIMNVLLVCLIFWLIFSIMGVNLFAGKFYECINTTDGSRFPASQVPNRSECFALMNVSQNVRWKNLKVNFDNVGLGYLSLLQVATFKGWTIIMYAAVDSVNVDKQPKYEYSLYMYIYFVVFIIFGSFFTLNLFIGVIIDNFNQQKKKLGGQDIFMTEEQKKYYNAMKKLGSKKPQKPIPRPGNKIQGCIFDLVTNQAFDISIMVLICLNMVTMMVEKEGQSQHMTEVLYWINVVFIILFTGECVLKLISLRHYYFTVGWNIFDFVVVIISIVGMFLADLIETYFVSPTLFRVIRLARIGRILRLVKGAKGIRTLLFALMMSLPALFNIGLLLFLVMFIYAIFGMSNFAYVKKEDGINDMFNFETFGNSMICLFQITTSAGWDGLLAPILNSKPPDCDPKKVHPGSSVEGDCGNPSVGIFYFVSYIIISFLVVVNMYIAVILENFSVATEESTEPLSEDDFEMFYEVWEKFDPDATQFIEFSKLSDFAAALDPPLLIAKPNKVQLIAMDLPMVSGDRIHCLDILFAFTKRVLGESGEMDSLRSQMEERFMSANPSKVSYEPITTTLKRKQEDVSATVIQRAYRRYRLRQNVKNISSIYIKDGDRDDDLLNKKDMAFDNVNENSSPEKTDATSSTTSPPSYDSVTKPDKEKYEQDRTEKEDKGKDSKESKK

For `CC(C)C[C@@H]1NC(=O)[C@@H](NC(=O)[C@H](CC(=O)O)NC(=O)[C@H](CC(=O)O)NC(=O)CN)CSSC[C@@H]2NC(=O)[C@@H]3CSSC[C@@H](C(=O)N[C@@H](CCCCN)C(=O)N[C@@H](Cc4ccc(O)cc4)C(=O)N[C@@H](CCC(N)=O)C(=O)N[C@@H](CC(C)C)C(=O)N[C@@H](Cc4c[nH]c5ccccc45)C(=O)O)NC(=O)[C@H](Cc4c[nH]c5ccccc45)NC(=O)[C@H](CCC(N)=O)NC(=O)[C@H](CC(=O)O)NC(=O)[C@H](CCCCN)NC(=O)[C@H](CCCNC(=N)N)NC(=O)[C@H](CO)NC(=O)[C@H](CSSC[C@H](NC(=O)[C@H](CO)NC(=O)[C@H](CO)NC(=O)[C@H](Cc4ccccc4)NC(=O)[C@H](C)NC(=O)CNC1=O)C(=O)N[C@@H](CC(=O)O)C(=O)N1CCC[C@H]1C(=O)N[C@@H](CC(N)=O)C(=O)N[C@@H](CC(N)=O)C(=O)N[C@@H](CC(=O)O)C(=O)N[C@@H](CCCCN)C(=O)N3)NC(=O)[C@H](CCCCN)NC(=O)[C@H](CCCNC(=N)N)NC(=O)[C@H](CC(N)=O)NC(=O)[C@@H]1CCCN1C2=O` [Peptide M6A] (H-GDDCLGAFSSCDPNNDKCCPNRKCSRKDQWCKYQLW-OH; disulfide 4-19, 11-24, 18-31), the 50% inhibitory concentration (IC50) on hNaV1.1 and against hNaV1.7 was > 1 µM each time.
`CSCC[C@@H]1NC(=O)CNC(=O)[C@H](CC(C)C)NC(=O)[C@@H](NC(=O)[C@H](CC(=O)O)NC(=O)[C@H](CC(=O)O)NC(=O)CN)CSSC[C@@H]2NC(=O)[C@@H]3CSSC[C@@H](C(=O)N[C@@H](CCCCN)C(=O)N[C@@H](Cc4ccc(O)cc4)C(=O)N[C@@H](CCC(N)=O)C(=O)N[C@@H](CC(C)C)C(=O)N[C@@H](Cc4c[nH]c5ccccc45)C(=O)O)NC(=O)[C@H](Cc4c[nH]c5ccccc45)NC(=O)[C@H](CCC(N)=O)NC(=O)[C@H](CC(=O)O)NC(=O)[C@H](CCCCN)NC(=O)[C@H](CCCNC(=N)N)NC(=O)[C@H](CO)NC(=O)[C@H](CSSC[C@H](NC(=O)[C@H](CO)NC(=O)[C@H](CO)NC(=O)[C@H](Cc4ccccc4)NC1=O)C(=O)N[C@@H](CC(=O)O)C(=O)N[C@@H](C)C(=O)N[C@@H](CC(N)=O)C(=O)N[C@@H](CC(N)=O)C(=O)N[C@@H](CC(=O)O)C(=O)N[C@@H](CCCCN)C(=O)N3)NC(=O)[C@H](CCCCN)NC(=O)[C@H](CCCNC(=N)N)NC(=O)[C@H](CC(N)=O)NC(=O)[C@@H]1CCCN1C2=O` [Peptide P12A] (H-GDDCLGMFSSCDANNDKCCPNRKCSRKDQWCKYQLW-OH; disulfide 4-19, 11-24, 18-31): the IC50 against hNaV1.1 and against hNaV1.7 was > 1 µM throughout.
For `CSCC[C@@H]1NC(=O)CNC(=O)[C@H](CC(C)C)NC(=O)[C@@H](NC(=O)[C@H](CC(=O)O)NC(=O)[C@H](CC(=O)O)NC(=O)CN)CSSC[C@@H]2NC(=O)[C@@H]3CSSC[C@@H](C(=O)N[C@@H](CCCCN)C(=O)N[C@@H](Cc4ccc(O)cc4)C(=O)N[C@@H](CCC(N)=O)C(=O)N[C@@H](CC(C)C)C(=O)N[C@@H](Cc4c[nH]c5ccccc45)C(=O)O)NC(=O)[C@H](Cc4c[nH]c5ccccc45)NC(=O)[C@H](C)NC(=O)[C@H](CC(=O)O)NC(=O)[C@H](CCCCN)NC(=O)[C@H](CCCNC(=N)N)NC(=O)[C@H](CO)NC(=O)[C@H](CSSC[C@H](NC(=O)[C@H](CO)NC(=O)[C@H](CO)NC(=O)[C@H](Cc4ccccc4)NC1=O)C(=O)N[C@@H](CC(=O)O)C(=O)N1CCC[C@H]1C(=O)N[C@@H](CC(N)=O)C(=O)N[C@@H](CC(N)=O)C(=O)N[C@@H](CC(=O)O)C(=O)N[C@@H](CCCCN)C(=O)N3)NC(=O)[C@H](CCCCN)NC(=O)[C@H](CCCNC(=N)N)NC(=O)[C@H](CC(N)=O)NC(=O)[C@@H]1CCCN1C2=O` [Peptide Q28A] (H-GDDCLGMFSSCDPNNDKCCPNRKCSRKDAWCKYQLW-OH; disulfide 4-19, 11-24, 18-31), the IC50 at hNaV1.1 and at hNaV1.7 was > 1 µM throughout.

By IC50 is commonly meant the midpoint of a concentration-inhibition curve. A lower IC50 goes with greater potency in that assay.

(Values after article PMC8490825 (Frontiers in Molecular Biosciences, 2021).)
